Assays:
HIV-1 IN = HIV-1 IN (Human immunodeficiency virus type 1 group M subtype B, UniProt P12497); test: in vitro IN assay, strand transfer; type: biochemical; details: in vitro ST inhibitory IC50, text values
[1] = system: lentiviral vector carrying WT IN; test: single-round HIV-1 infectivity assay, WT IN; type: cell-based; details: Human immunodeficiency virus 1, read-out: EC50 (WT IN)
[2] = system: HIV-1 vector carrying IN mutant Y143R; test: single-round HIV-1 infectivity assay, Y143R IN; type: cell-based; details: for EC50: Human immunodeficiency virus 1, read-out: EC50 Y143R; for Fold-change (FC) in EC50 relative to WT, Y143R: in parentheses
[3] = system: HIV-1 vector carrying IN mutant N155H; test: single-round HIV-1 infectivity assay, N155H IN; type: cell-based; details: for EC50: Human immunodeficiency virus 1, read-out: EC50 N155H; for Fold-change (FC) in EC50 relative to WT, N155H: in parentheses
[4] = system: HIV-1 vector carrying IN mutant G140S/Q148H; test: single-round HIV-1 infectivity assay, G140S/Q148H IN; type: cell-based; details: for Fold-change (FC) in EC50 relative to WT, G140S/Q148H: in parentheses
[5] = system: HIV-1 vector carrying IN mutant G118R; test: single-round HIV-1 infectivity assay, G118R IN; type: cell-based; details: for EC50: Human immunodeficiency virus 1, read-out: EC50 G118R; for Fold-change (FC) in EC50 relative to WT, G118R: in parentheses
[6] = system: HIV-1 vector carrying IN mutant R263K; test: single-round HIV-1 infectivity assay, R263K IN; type: cell-based; details: for EC50: Human immunodeficiency virus 1, read-out: EC50 R263K; for Fold-change (FC) in EC50 relative to WT, R263K: in parentheses
[7] = system: HIV-1 vector carrying IN mutant T66I; test: single-round HIV-1 infectivity assay, T66I IN; type: cell-based; details: for EC50: Human immunodeficiency virus 1, read-out: EC50 T66I; for Fold-change (FC) in EC50 relative to WT, T66I: in parentheses
[8] = system: HIV-1 vector carrying IN mutant E92Q; test: single-round HIV-1 infectivity assay, E92Q IN; type: cell-based; details: for EC50: Human immunodeficiency virus 1, read-out: EC50 E92Q; for Fold-change (FC) in EC50 relative to WT, E92Q: in parentheses
[9] = system: HIV-1 vector carrying IN mutant H51Y; test: single-round HIV-1 infectivity assay, H51Y IN; type: cell-based; details: for EC50: Human immunodeficiency virus 1, read-out: EC50 H51Y; for Fold-change (FC) in EC50 relative to WT, H51Y: in parentheses
[10] = system: HIV-1 vector carrying IN mutant H51Y/R263K; test: single-round HIV-1 infectivity assay, H51Y/R263K IN; type: cell-based; details: for EC50: Human immunodeficiency virus 1, read-out: EC50 H51Y/R263K; for Fold-change (FC) in EC50 relative to WT, H51Y/R263K: in parentheses
in vitro = details: human

Row | SMILES | EC50 [1] [nM] | EC50 [2] [nM] | Fold-change (FC) in EC50 relative to WT, Y143R [2] | EC50 [3] [nM] | Fold-change (FC) in EC50 relative to WT, N155H [3] | Fold-change (FC) in EC50 relative to WT, G140S/Q148H [4] | EC50 [5] [nM] | Fold-change (FC) in EC50 relative to WT, G118R [5] | EC50 [6] [nM] | Fold-change (FC) in EC50 relative to WT, R263K [6] | EC50 [7] [nM] | Fold-change (FC) in EC50 relative to WT, T66I [7] | EC50 [8] [nM] | Fold-change (FC) in EC50 relative to WT, E92Q [8] | EC50 [9] [nM] | Fold-change (FC) in EC50 relative to WT, H51Y [9] | EC50 [10] [nM] | Fold-change (FC) in EC50 relative to WT, H51Y/R263K [10] | CC50 (in vitro) [nM] | other results
1 | Nc1c(C(=O)NCc2ccc(F)cc2F)c(=O)n(O)c2ncc(CCCO)cc12 [4b] | 3.1 ± 2 | 2.8 ± 0.9 | 0.90 | 8.5 ± 3.1 | 2.7 | 4.3 | 10 ± 1.6 | 3.2 | 2.5 ± 0.8 | 0.81 | 1.1 ± 0.1 | 0.35 | 4.8 ± 2 | 1.5 | 2.6 ± 0.5 | 0.84 | 15 ± 2 | 4.8 | > 250000 | IC50 (HIV-1 IN): 11 nM
2 | Nc1c(C(=O)NCc2ccc(F)cc2F)c(=O)n(O)c2ncc(CCCCCO)cc12 [4c] | 1.3 ± 0.2 | 3 ± 0.5 | 2.3 | 2.4 ± 0.8 | 1.8 | 5.3 | 5.3 ± 1.6 | 4.1 | 2.6 ± 0.1 | 2.0 | 0.93 ± 0.24 | 0.72 | 3.8 ± 2.3 |  | 3.8 ± 0.6 | 2.9 | 2.6 ± 1.4 | 2.0 | > 250000 | EC50 ([4]; read-out: EC50 G140S/Q148H, viral vector carrying IN mutations G140S/Q148H): 6.9 ± 2.3 nM
3 | Nc1c(C(=O)NCc2ccc(F)cc2F)c(=O)n(O)c2ncc(CCCCCCO)cc12 [4d] | 2.3 ± 0.6 | 2.1 ± 1.4 | 0.91 | 2.7 ± 1 | 1.2 | 4.1 | 6.4 ± 2.5 | 2.8 | 8.4 ± 2.3 | 3.7 | 0.5 ± 0.35 | 0.22 | 0.74 ± 0.13 | 0.32 | 1.6 ± 0.1 | 0.70 | 5.2 ± 1.6 | 2.3 | > 250000 | 
4 | Nc1c(C(=O)NCc2ccc(F)cc2F)c(=O)n(O)c2ncc(CCCCCCCCO)cc12 [4e] | 3.7 ± 0.4 | 3.2 ± 0.8 | 0.86 | 6.5 ± 2.7 | 1.8 | 2.1 | 11 ± 1 | 3.0 | 3.8 ± 1.1 | 1.0 | 1.7 ± 0.5 | 0.46 | 2.6 ± 0.2 | 0.70 | 4.8 ± 1.1 | 1.3 | 22 ± 8 | 5.9 | > 250000 | IC50 (HIV-1 IN): 5 nM
5 | Nc1c(C(=O)NCc2ccc(F)cc2F)c(=O)n(O)c2ncc(CCS(=O)(=O)c3ccccc3)cc12 [4f] | 2 ± 0.1 | 0.6 ± 0.1 | 0.3 | 2.1 ± 1.2 | 1 | 3 | 11.4 ± 3.5 | 6 | 5.3 ± 0.8 | 2 | 0.7 ± 0.1 | 0.3 | 1.2 ± 0.6 | 0.6 | 0.8 ± 0.5 | 0.4 | 5.3 ± 0.4 | 2 | > 250000 | 
6 | Cc1nnc(C(=O)NC(C)(C)c2nc(C(=O)NCc3ccc(F)cc3)c(O)c(=O)n2C)o1 [compound 1, raltegravir, reference compound] |  |  |  |  |  |  |  |  |  |  | 2.8 ± 0.4 |  | 30 ± 10 |  | 3.4 ± 0.2 |  | 6 ± 2.3 |  |  | 
7 | COc1cc2c(cc1Cc1cccc(Cl)c1F)c(=O)c(C(=O)O)cn2[C@H](CO)C(C)C [compound 2, elvitegravir, reference compound] | 6.4 ± 0.8 | 7.9 ± 2.3 | 1.2 | 90 ± 18 | 14 | 891 | 21 ± 10 | 3.3 | 10 ± 6 | 1.6 | 66 ± 1 | 10 | 154 ± 34 | 24 | 4.5 ± 2.1 | 0.7 | 53 ± 18 | 8 | > 250000 | 
8 | C[C@@H]1CCO[C@H]2Cn3cc(C(=O)NCc4ccc(F)cc4F)c(=O)c(O)c3C(=O)N12 [compound 3, dolutegravir, reference compound] |  |  |  |  |  |  |  |  |  |  | 0.9 ± 0.8 |  | 2.3 ± 0.4 |  | 3.2 ± 0.2 |  | 16 ± 2 |  |  | 

From article PMC4836387 (ACS Chemical Biology, 2016)
